Data reported in patent US20250333405A1, “ANTAGONISTS OF GPR39 PROTEIN” (VASOCARDEA, INC., priority 2024, published 2025).

The molecules below were run against T1, human GPR39 receptor (Homo sapiens, UniProt O43194) (assay: Intracellular calcium response (FLIPR, Calcium-6) in PC3 cells, antagonism of agonist C3 (TC-G 1008) at EC90). Conditions: functional pKi (-Log10Ki) by modified Cheng-Prusoff from IC50; PC3 cells endogenously expressing human GPR39; 30 μM ZnCl2; agonist C3 (TC-G 1008) at EC90 1.5 μM; read-out: fpKi activity.
T1 construct: PC3 Cells, Expressing the Endogenous Human GPR39 Receptor; endogenous in cells; host or cells: PC3 (human prostate adenocarcinoma) cells
T1 sequence (O43194 1-453): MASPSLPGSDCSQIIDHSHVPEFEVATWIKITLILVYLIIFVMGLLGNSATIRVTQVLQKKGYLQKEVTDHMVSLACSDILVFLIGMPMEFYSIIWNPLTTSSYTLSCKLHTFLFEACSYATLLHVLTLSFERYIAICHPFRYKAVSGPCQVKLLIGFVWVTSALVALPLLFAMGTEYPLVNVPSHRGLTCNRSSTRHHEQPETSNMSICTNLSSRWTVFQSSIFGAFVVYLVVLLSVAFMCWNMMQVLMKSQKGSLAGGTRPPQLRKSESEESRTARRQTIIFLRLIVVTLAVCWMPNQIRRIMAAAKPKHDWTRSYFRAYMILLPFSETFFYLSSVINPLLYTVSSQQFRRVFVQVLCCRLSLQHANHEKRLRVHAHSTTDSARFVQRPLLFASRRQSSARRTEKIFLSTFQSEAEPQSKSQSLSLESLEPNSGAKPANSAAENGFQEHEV
Type: cell-based
Method: Measurement of Intracellular Calcium Response in PC3 Cells, Expressing the Endogenous Human GPR39 Receptor
Human prostate adenocarcinoma (PC3) cells endogenously expressing human GPR39 receptor were seeded into black walls clear-base 384-well plates at a density of 7,500 cells per well in DMEM (Low Glucose) supplemented with 10% heat-inactivated foetal bovine serum and 1% of Pen/Strep and grown overnight at 37° C., 5% CO2. After washing with assay buffer (20 mM HEPES, 137 mM NaCl, 5.4 mM KCl, 10 mM glucose, 0.8 mM MgSO4, 1.3 mM CaCl2), 0.3 mM Na2HPO4, 0.4 mM KH2PO4 4.2 mM NaHCO3, pH 7.4), cells were incubated with Calcium-6 probe (Molecular Devices) at 37° C. for 2 h and then equilibrated at RT for 30 minutes on metal block. The fluorescence was measured in real time by Fluorometric Imaging Plate Reader (FLIPR TETRA, Molecular Devices) (excitation wavelength at 470-495 nm, emission wavelength at 515-575 nm). Compounds of invention were serially diluted in neat DMSO at 1000 fold concentrations and plated into 384-well plates and then 200-fold diluted in assay buffer containing 150 μM ZnCl2 (30 μM final concentration) and 1.1% DMSO (0.32% final concentration). A dual addition FLIPR protocol was used which included a first addition of compounds 200-fold diluted in Assay Buffer containing 150 μM ZnCl2 and 1.1% DMSO and then after 10 minutes a second addition of a submaximal concentration of the hGPR39 receptor agonist, C3 (Tocris, TC-G 1008) at EC90 (concentration producing 90% of the maximal response) value of 1.5 μM. Fluorescence was monitored throughout the run assay. The peak of Ca2+ stimulation (baseline subtracted) was expressed as percentage of the maximal inhibition of the EC90 C3 response and was plotted versus the concentration of test compound. Curve fitting and IC50 estimations are carried out using a four-parameter logistic model using XLfit Software. […] An fpKi less than 5.2 is reported as “+/−”. An fpKi ranging from 5.2 to 5.9 is reported as “+”. An fpKi from 6.0 to 6.5 is reported as “++”. An fpKi from 6.6 to 7.2 is reported as “+++”. An fpKi equal to or greater than 7.3 is reported as “++++”.

Row | Compound | Ki
1 | Cc1nnc(-c2ccc(C(=O)N3CCC(F)(F)CC3)c(-c3ccn(C4CCC4)n3)c2)[nH]1 [Example 55, [2-(1-cyclobutylpyrazol-3-yl)-4-(5-methyl-4H-1,2,4-triazol-3-yl)phenyl]-(4,4-difluoropiperidin-1-yl)methanone] | ≤ 0.0501 µM
2 | Cc1nnc(-c2ccc(C(=O)N3CC4(C3)CC(F)(F)C4)c(-c3ccn(C(C)C)n3)c2)[nH]1 [Example 52, (6,6-difluoro-2-azaspiro[3.3]heptan-2-yl)-[2-(1-isopropylpyrazol-3-yl)-4-(5-methyl-4H-1,2,4-triazol-3-yl)phenyl]methanone] | ≤ 0.0501 µM
3 | CCOC1CCN(C(=O)c2ccc(-c3nnc(C)[nH]3)cc2-c2ccn(C(C)C)n2)CC1 [Example 42, (4-ethoxy-1-piperidyl)-[2-(1-isopropylpyrazol-3-yl)-4-(5-methyl-4H-1,2,4-triazol-3-yl)phenyl]methanone] | ≤ 0.0501 µM
4 | O=C(Nc1ccc(C(=O)N2CCC3(COC3)C2)c(N2CCCC2)c1)C1CC1 [Example 3, N-[4-(2-oxa-7-azaspiro[3.4]octane-7-carbonyl)-3-pyrrolidin-1-ylphenyl]cyclopropanecarboxamide] | 1.26 to 6.31 µM
5 | Cc1nnc(-c2ccc(C(=O)N3CCC(C)(F)CC3)c(-c3ccn(C(C)C)n3)c2)[nH]1 [Example 43, (4-fluoro-4-methylpiperidin-1-yl)-[4-(5-methyl-4H-1,2,4-triazol-3-yl)-2-(1-propan-2-ylpyrazol-3-yl)phenyl]methanone] | ≤ 0.0501 µM
6 | O=C(Nc1ccc(C(=O)N2C3CCC2COC3)c(N2CCCC2)c1)C1CC1 [Example 7, N-[4-(3-oxa-8-azabicyclo[3.2.1]octane-8-carbonyl)-3-pyrrolidin-1-ylphenyl]cyclopropanecarboxamide] | 1.26 to 6.31 µM
7 | CN1CCN(C(=O)c2ccc(-c3cn[nH]c3)cc2N2CCCC2)C(c2ccccc2)C1 (centres unmarked) [Example 21, (4-methyl-2-phenylpiperazin-1-yl)-[4-(1H-pyrazol-4-yl)-2-pyrrolidin-1-ylphenyl]methanone] | > 6.31 µM

Further lines, results first:

Row | Ki | Compound
8 | 0.316 to 1 µM | Cc1nnc(-c2ccc(C(=O)N3CCC(C#N)CC3)c(-c3ccn(C(C)C)n3)c2)[nH]1 [Example 120, 1-[2-(1-isopropylpyrazol-3-yl)-4-(5-methyl-4H-1,2,4-triazol-3-yl)benzoyl]piperidine-4-carbonitrile]
9 | ≤ 0.0501 µM | COC1CCN(C(=O)c2ccc(-c3nnc(C)[nH]3)cc2-c2ccn(C(C)C)n2)CC1 [Example 58, (4-methoxypiperidin-1-yl)-[4-(5-methyl-4H-1,2,4-triazol-3-yl)-2-(1-propan-2-ylpyrazol-3-yl)phenyl]methanone]
10 | > 6.31 µM | CN1CCN(C(=O)c2cc3[nH]c(C4CC4)nc3cc2N2CCCC2)C(c2ccccc2)C1 (centres unmarked) [Example 113, (2-cyclopropyl-6-pyrrolidin-1-yl-3H-benzimidazol-5-yl)-(4-methyl-2-phenylpiperazin-1-yl)methanone]
11 | 0.0631 to 0.251 µM | CN1CCN(C(=O)c2ccc(NC(=O)C3CC3)cc2C2=CCCC2)C(c2ccccc2)C1 (centres unmarked) [Example 89, N-[3-(cyclopenten-1-yl)-4-(4-methyl-2-phenylpiperazine-1-carbonyl)phenyl]cyclopropanecarboxamide]
12 | ≤ 0.0501 µM | Cc1nnc(-c2ccc(C(=O)N3CCC(F)(F)CC3)c(-c3cccc(C4CC4)n3)c2)[nH]1 [Example 78, [2-(6-cyclopropyl-2-pyridyl)-4-(5-methyl-4H-1,2,4-triazol-3-yl)phenyl]-(4,4-difluoro-1-piperidyl)methanone]
13 | ≤ 0.0501 µM | O=C(Nc1ccc(C(=O)N2CCC(F)(F)CC2)c(-n2ccc(C(F)(F)F)n2)c1)C1CC1 [Example 119, N-[4-(4,4-difluoropiperidine-1-carbonyl)-3-[3-(trifluoromethyl)pyrazol-1-yl]phenyl]cyclopropanecarboxamide]
14 | ≤ 0.0501 µM | COC1(C)CCN(C(=O)c2ccc(-c3nnc(C)[nH]3)cc2-c2ccn(C(C)(C)C)n2)CC1 [Example 66, [2-(1-tert-butylpyrazol-3-yl)-4-(5-methyl-4H-1,2,4-triazol-3-yl)phenyl]-(4-methoxy-4-methyl-1-piperidyl)methanone]
